Data on 1 compound can be found in patent US20080312298A1, “Methods for Identification of Modulators of Carm1 Methyl Transferase Activity” (priority 2007, published 2008).

In the assay the target is T1, CARM1 (Homo sapiens, UniProt Q86X55).
T1 construct: made in house; host or cells: E. coli
T1 sequence (Q86X55 1-608): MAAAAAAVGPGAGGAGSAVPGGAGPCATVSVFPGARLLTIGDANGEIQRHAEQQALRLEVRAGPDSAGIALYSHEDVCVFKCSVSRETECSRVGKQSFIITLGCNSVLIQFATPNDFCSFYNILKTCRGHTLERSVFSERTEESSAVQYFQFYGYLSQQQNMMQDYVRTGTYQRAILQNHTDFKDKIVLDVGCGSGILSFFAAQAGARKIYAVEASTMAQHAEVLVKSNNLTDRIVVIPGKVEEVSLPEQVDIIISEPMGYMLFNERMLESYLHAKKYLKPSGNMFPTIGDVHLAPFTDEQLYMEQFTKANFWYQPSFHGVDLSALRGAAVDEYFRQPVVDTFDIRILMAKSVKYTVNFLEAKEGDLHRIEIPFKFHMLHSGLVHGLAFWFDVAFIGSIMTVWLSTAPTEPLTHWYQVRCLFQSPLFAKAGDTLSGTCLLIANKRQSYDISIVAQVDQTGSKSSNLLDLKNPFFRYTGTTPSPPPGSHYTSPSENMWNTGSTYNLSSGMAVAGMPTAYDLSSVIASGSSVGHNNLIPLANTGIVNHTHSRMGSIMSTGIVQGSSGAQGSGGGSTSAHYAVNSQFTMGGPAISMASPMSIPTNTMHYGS
Kind of assay: CARM1 biochemical assay (scintillation proximity assay, SPA). The source says:
CARM1 biochemical Assay. (e.g. for Determining IC50 Values).
A fusion protein of CARM1 to MBP (Maltose Binding protein), expressed and purified from E. coli, was used to methylate peptides derived from either the N-terminus of histone H3 (acetyl-STGGKAPRKQLATKAARK-biotin) or from PABP1 (acetyl-[…]-biotin). The H3 peptide has two residues R17 and R26 that have been reported to be methylated by CARM1 (Brandon et al., Biochemistry, 2001, 40(19):5747-5756). The PABP1 peptide also contains two arginine residues, R455 and R460, similarly methylated by CARM1 (Lee and Bedford, EMBO Rep. 2002, 3(3):268-73). The methylation reaction was conducted in the presence of tritiated S-Adenosyl-L-Methionine (3H-SAM), 1 μg MBP-CARM1, 250 nM peptide substrate, and assay buffer (50 mM Tris pH 8.0, 0.03% BSA, 3 mM DTT). The reaction was allowed to proceed at room temperature for 75 minutes before being stopped by Stop buffer (25 mM Tris pH 7.4, 100 mM EDTA, 1% Tween 20) and Streptavidin-coated SPA beads (2 mg/ml) (GE Healthcare). The beads were allowed to settle overnight before the signal was counted in a TOPCOUNT. The final SAM concentration in the reaction and the ratio of tritiated to unlabelled SAM was adjusted to give a good signal/noise. […]
On the technique in general: In a scintillation proximity assay essentially only radioactivity close to the scintillant gives light.

In the case of `CNC[C@H](O)c1cccc(O)c1`, the “mode of inhibition with respect to SAM” value is on record as “SAM competitive”. In addition, the IC50 entry (at saturating SAM concentrations) is on record as “low micromolar”.
